Reference: US7902185B2, “Treatment of neurodegenerative diseases using proteasome modulators” (ALS Therapy Development Foundation, Inc., priority 2002, dated 2011)
Where two headings read alike, the source gives them in different places.

What was measured:
patients with ALS = conditions: Borras-Blasco et al. (1998); cited from earlier work
[1] = in vivo; cited from earlier work
caspase 3 = target: T1, caspase 3 (Homo sapiens, UniProt P42574); conditions: cited from earlier work
T1 sequence (P42574 29-277): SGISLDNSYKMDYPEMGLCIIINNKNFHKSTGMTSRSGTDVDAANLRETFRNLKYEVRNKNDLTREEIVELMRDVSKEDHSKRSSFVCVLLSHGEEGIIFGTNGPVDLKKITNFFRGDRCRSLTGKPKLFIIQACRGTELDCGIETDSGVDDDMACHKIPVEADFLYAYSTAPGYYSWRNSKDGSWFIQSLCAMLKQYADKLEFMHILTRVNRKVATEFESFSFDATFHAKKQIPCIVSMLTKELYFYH

[2] = test system: SOD1 G93A mouse model of ALS; experiment: Survival in SOD1 G93A mouse model of ALS; conditions: for Female (% effect on survival) / Female (Days) survival: females; for Combined (% effect on survival) / Combined (Days) survival: males+females; for Combined (Days) survival / Female (Days) survival / Male (Days) survival: mean; for Female (Days) survival / Male (Days) survival: treated; for Male (Days) survival / Male (% effect on survival): males;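 as to all read-outs here: heterozygous transgenic SOD1 G93A mice dosed from 60 days of age until death, checked daily for death, compared with vehicle-treated controls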
Description: Model Description: The SOD1 G93A (high copy) mouse model is a mouse that carries 25 copies of the human G93A SOD mutation and is driven by the endogenous promoter.
Murine ALS model: Heterozygous transgenic mice carrying the human SOD-1 (G93A) gene were obtained from Jackson Laboratory (Bar Harbor, Me., USA) and experiments were performed under IRB protocol at Massachusetts College of Pharmacy.
Control Drug and Pharmacological Agent Preparation and Delivery: The drugs were formulated in suitable vehicles and control groups were given the same vehicle as treatment. […] Mice were treated from 60 days of age until death and were monitored daily for weight, neurological score and death.
Statistical Analysis: Statistical analysis on the neurological score, body weight and survival was done by utilizing ANOVA, Kaplan Meier, t-test, Cox's proportional hazards regression model and mixed linear model methods. All statistical analysis was performed using standard procedures known in the art.

[3] = target: LMP7 component of the immunoproteosome (Homo sapiens, UniProt P28062); conditions: cited from earlier work
[4] = test system: IκB degradation and NF-κB mediated signal transduction; conditions: at high doses (approximately 100 μM); cited from earlier work
ALS patient = experiment: Ritonavir treatment of an ALS patient; format: in vivo, human; conditions: one patient
Excerpt: The patient was on ventilator and non-ambulatory. The patient was paralyzed below the waist except the neck region, and communicated with head movement using Morse code based computer keys. […] The biceps and forearms of the patient were paralyzed for several years.
After administering Ritonavir® for nine months, the patient underwent neurological examination.

[5] = test system: proteasomal chymotrypsin activity; conditions: at 5 uM concentration; cited from earlier work
AIDS patients = conditions: human, in vivo; cited from earlier work
[6] = Maximal tolerated dose in the mouse studies; format: in vivo; conditions: dose of these studies is quite close to it
Description: The dose of Ritonavi® in these studies (50 mg/Kg) is quite close to its maximal tolerated dose.

[7] = test system: experimental autoimmune encephalomyelitis (EAE); conditions: previous animal efficacy studies, cited from earlier work
[8] = test system: SOD1 G93A mouse model of ALS; experiment: Neurological score in SOD1 G93A mouse model of ALS; format: in vivo; conditions: for Neurological score significance (Males & Females combined): p value, mixed piece wise linear analysis
Description: Neurological Scoring: From day 85 onward, neurological score was recorded on a 4-point scale: • 0=Normal reflex on the hind limbs (animal will splay its hind limbs when lifted by its tail) • 1=Abnormal reflex (Lack of splaying of hind limbs when animal is lifted by the tail). • 2=Abnormal reflex and visible evidence of paralysis • 3=Lack of reflex and total paralysis of hind limbs. • 4=Inability to right themselves when placed on the sides in 30 seconds or found dead. The animals are sacrificed at this stage if alive.

cell proliferation = conditions: by arresting cells in the GI phase the cell cycle; cited from earlier work
[9] = test system: antigen processing and MHC I expression; conditions: cited from earlier work
proteasome = conditions: at very high concentrations; cited from earlier work
[10] = Combined Ritonavir studies (100% Litter matched), vs control
[11] = Combined Ritonavir studies (100% Litter matched)
[12] = study Ritonavir-1, 50 mg/Kg/day IP
[13] = study Ritonavir-2, 50 mg/Kg/day IP
[14] = study Ritonavir-3, 50 mg/Kg/day IP
[15] = after nine months of administration

For Nc1nc2ccc(OC(F)(F)F)cc2s1 [Riluzole], the “muscular strength of ALS patients” value (patients with ALS) is given as “does not appear to provide an improvement”.
In the case of CC(C)c1nc(CN(C)C(=O)N[C@H](C(=O)N[C@@H](Cc2ccccc2)C[C@H](O)[C@H](Cc2ccccc2)NC(=O)OCc2cncs2)C(C)C)cs1 (relative stereo) [Ritonavir, 10-Hydroxy-2-methyl-5-(1-methylethyl)-4-thiazolyl]-3,6-dioxo-8,11-bis (phenylmethyl)-2,4,7,12-tetraazatridecan-13-oic acid, 5-thiazolylmethyl ester, [5S-(5R*,8R*,10R*,11R*)]], the “plasma levels, female animals compared to males” value [1] is listed as “higher plasma levels”, the “activity of caspase 3” value (caspase 3) is listed as “inhibit” and the “Female (% effect on survival)” value [2, 10] is listed as −1%. The “Combined (% effect on survival)” value [2, 10] was 2%, the “Combined (Days) survival” value ([2]; Combined Ritonavir studies (100% Litter matched), treated N=48) was 141 days and the “Female (Days) survival” value [2, 11] was 138 days. The “Male (Days) survival” value [2, 11] was 144 days, the “Female (% effect on survival)” value ([2]; study Ritonavir-1, vs control) was “None” and the “Combined (% effect on survival)” value ([2]; study Ritonavir-1, (mean treated-mean control)/mean control*100) was 5%. The “Male (% effect on survival)” value ([2]; study Ritonavir-1, vs control) was 10%, the “Combined (Days) survival” value ([2]; study Ritonavir-1, treated N=20, 50 mg/Kg/day IP) was 145 days and the “Female (Days) survival” value [2, 12] was 141 days. For the same compound, the “Male (Days) survival” value [2, 12] was 149 days, the “Female (% effect on survival)” value ([2]; study Ritonavir-2, vs control) was 6% and the “Combined (% effect on survival)” value ([2]; study Ritonavir-2, vs control) was 7%. The “Male (% effect on survival)” value ([2]; study Ritonavir-2, vs control) was 8%, the “Combined (Days) survival” value ([2]; study Ritonavir-2, treated N=18, 50 mg/Kg/day IP) was 149 days and the “Female (Days) survival” value [2, 13] was 144 days. For the same compound, the “Male (Days) survival” value [2, 13] was 153 days, the “Female (% effect on survival)” value ([2]; study Ritonavir-3, vs control) was −5% and the “Combined (% effect on survival)” value ([2]; study Ritonavir-3, vs control) was 2%. For the same compound, the “Male (% effect on survival)” value ([2]; study Ritonavir-3, vs control) was 7%, the “Combined (Days) survival” value ([2]; study Ritonavir-3, treated N=18, 50 mg/Kg/day IP) was 137 days and the “Female (Days) survival” value [2, 14] was 134 days. For the same compound, the “Male (Days) survival” value [2, 14] was 139 days, the “survival, overall conclusion” value ([2]; three separate studies) was “prolongation” and the “activity compared with positive control riluzole” value ([2]; three studies, based on neurological score and survival data) was “more active”. The “binding to the LMP7 component of the immunoproteosome” value [3] was “binds”, the “inhibition of IκB degradation and NF-κB mediated signal transduction” value [4] was “inhibit” and the “therapeutic effects in an ALS patient” value (ALS patient; 400 mg/day for about nine months) was “ameliorating the effects of ALS, slowing progression of the disease, and improving survival”. The “time until beneficial therapeutic effects were experienced” value (ALS patient; 400 mg/day) was “after three weeks”, the “diaphragm strength (neurological examination)” value (ALS patient; [15]) was “gained enough strength to dislodge a tracheostomy cuff when sneezing” and the pectoral muscle strength (ALS patient; [15]) was “gained significant strength”. For the same compound, the “swallowing (neurological examination)” value (ALS patient; [15]) was “able to swallow”, the “muscles that had been paralyzed for years” value (ALS patient; after treatment) was “again under conscious control and showed electrical nerve activity” and the “inhibition of proteasomal chymotrypsin activity” value [5] was “inhibition”. The “toleration in AIDS patients” value (AIDS patients) was “good toleration”, the maximal tolerated dose [6] was about 50 mg/kg and the “effect in the EAE model” value [7] was “protective”. The “effect in the EAE model” value ([7]; listed as pharmacological agent) was “prevented the development”, the “Neurological score significance (Males & Females combined)” value (shortened to “Neurological score significance”) ([8]; study Ritonavir-1) was “p < 0.0001” and the “Neurological score significance” value ([8]; study Ritonavir-2) was “p < 0.0001”. The “Neurological score significance” value ([8]; study Ritonavir-3) was “p = 0.0007”, the “disease progression (neurological score), overall conclusion” value ([8]; three separate studies) was “reproducible slowing” and the cell proliferation (cell proliferation) was “suppress”. For the same compound, the “antigen processing and MHC I expression” value [9] was “decreased”.
For CC(C)(C)NC(=O)[C@@H]1C[C@@H]2CCCC[C@@H]2CN1C[C@@H](O)[C@H](Cc1ccccc1)NC(=O)[C@H](CC(N)=O)NC(=O)c1ccc2ccccc2n1 [saquinavir], the “alteration of proteasome activity” value (proteasome) is given as “alters proteasome activity”.
